Reference: US11242549B2, “Bio-refinery waste utilization for enzyme production using novel penicillium funiculosum MRJ-16 fungal strain” (INDIAN OIL CORPORATION LIMITED, priority 2019, dated 2022)
Where two headings read alike, the source gives them in different places.

System: Penicillium funiculosum MRJ-16 mutant strain
Assay type: cell-based
Settings: 120 hours of fermentation
Protocol: Fermentation process was carried out using ammonium sulphate (3-5 g/L), KH2PO4 (4-6 g/L), MgSO4.7H2O (0.5-1 g/L), CaCO3 (2.5-5 g/L), Glycerol (2-3 g/L), Corn steep solids (25-35 g/L), cellulose (25-40 g/L) and Tween-80 (1-2 ml/L) dissolved in distilled water. Novel Penicillium funiculosum MRJ-16 mutant strain developed in the laboratory was used for the study. […]
Cultivation of Penicillium funiculosum MRJ-16 mutant strain was conducted under conditions and media composition identical to example no. 1 along with inhibitors at different concentration.

SMILES	Average FPA/ml (inhibitor 0.5% in media) [FPA/ml]	Average FPA/ml (inhibitor 0.25% in media) [FPA/ml]
CC(=O)O [Acetic acid, acetic acid]	6.49	–
O=Cc1ccco1 [Furfural, furfural]	–	6.83
O=Cc1ccc(CO)o1 [HMF, hydroxyl methyl furfural]	–	6.07
